From US20230346831A1, “METHODS FOR TREATING […] USING LOW DOSE CARBON MONOXIDE” (priority 2020, published 2023)
“And” between values parts separate entries of the source, which are not always exact repeats. Equal entries are not always repeated.

System: MCF7/TGL cells
Assay: metabolomic assay (polar metabolite profiling, mass spectrometry)
Assay type: cell-based, human
Experimental: Extraction and analysis were performed with the same parameters as the method disclosed in FIG. 7.
7 × 10^6 cells were seeded in 10-cm cell culture plates with DMEM containing 10% FBS, 0.2 mM L-glutamine and 1% penicillin/streptomycin. Additionally, MCF7/TGL/pQ was cultured in media containing 0.5 µgml^-1 puromycin and 25 mM HEPES. After 16 hours of incubation, metabolites were extracted from the cells using 80% methanol. The remaining steps were carried out by Weill Cornell Medicine Proteomics and Metabolomics Core Facility according to M. D. Goncalves et al., Proc Natl Acad Sci USA 115, E743-E752 (2018). All data analyses were done using MetaboAnalyst 4.0 (www.metaboanalyst.ca/).
To investigate whether 250 ppm CO mimics hypoxia, the HiF1α protein levels were examined in CO treated MCF7/TGL and MDA-MB-231/TGL cells. […] To determine whether 250 ppm CO affects metabolism, polar metabolites were profiled using two breast cancer cell lines, MCF7/TGL and MDA-MB-231/TGL (FIGS. 7-9).

[1] = MCF7/TGL cells, 250 ppm CO, 16 hours

[C-]#[O+] [CO, Carbon monoxide]
Peak Height Cytosine (HMDB00630, MCF7/TGL cells treated with CO, replicates CO 1-3): 153,235 and 158,066 and 214,404 | Peak Height L-Glutamine (HMDB00641, MCF7/TGL cells treated with CO, replicates CO 1-3): 2,010,884,000 and 2,067,120,000 and 2,186,859,000 | Peak Height D-Fructose (HMDB00660, MCF7/TGL cells treated with CO, replicates CO 1-3): 2,161,466 and 2,426,370 and 4,390,968 | Peak Height Indolelactic acid (HMDB00671, MCF7/TGL cells treated with CO, replicates CO 1-3): 168,415 and 166,030 and 323,966 | Peak Height Indoxyl sulfate (HMDB00682, MCF7/TGL cells treated with CO, replicates CO 1-3): 31,554 and 19,025 and 38,019 | Peak Height L-Kynurenine (HMDB00684, MCF7/TGL cells treated with CO, replicates CO 1-3): 186,534 and 218,684 and 386,445 | Peak Height L-Leucine (HMDB00687, MCF7/TGL cells treated with CO, replicates CO 1-3): 319,755,000 and 339,183,100 and 446,258,700 | Peak Height L-Methionine (HMDB00696, MCF7/TGL cells treated with CO, replicates CO 1-3): 110,122,300 and 114,069,500 and 202,567,100 | Peak Height Hexanoylcarnirine (HMDB00705, MCF7/TGL cells treated with CO, replicates CO 1-3): 309,788 and 384,626 and 554,943 | Peak Height Hippuric acid (HMDB00714, MCF7/TGL cells treated with CO, replicates CO 1-3): 41,839 and 33,037 and 50,895 | Peak Height Kynurenic acid (HMDB00715, MCF7/TGL cells treated with CO, replicates CO 1-3): 57,830 and 46,636 and 67,981 | Peak Height Malic acid (HMDB00744, MCF7/TGL cells treated with CO, replicates CO 1-3): 118,667,000 and 141,604,200 and 190,900,500 | Peak Height N-Acetyl-L-alanine (HMDB00766, MCF7/TGL cells treated with CO, replicates CO 1-3): 3,050,982 and 3,282,590 and 5,343,814 | Peak Height Phenyllactic acid (HMDB00779, MCF7/TGL cells treated with CO, replicates CO 1-3): 375,745 and 377,557 and 505,569 | Peak Height 3-Phosphoglyceric acid (HMDB00807, MCF7/TGL cells treated with CO, replicates CO 1-3): 830,372 and 1,313,918 and 2,225,910 | Peak Height N-Acetyl-L-aspartic acid (HMDB00812, MCF7/TGL cells treated with CO, replicates CO 1-3): 107,096,600 and 121,628,700 and 146,462,300 | Peak Height Phenylacetylglycine (HMDB00821, MCF7/TGL cells treated with CO, replicates CO 1-3): 1,455,001 and 1,300,695 and 2,222,377 | Peak Height Propionylcarnitine (HMDB00824, MCF7/TGL cells treated with CO, replicates CO 1-3): 88,247,270 and 88,089,220 and 114,107,300 | Peak Height Ureidosuccinic acid (HMDB00828, MCF7/TGL cells treated with CO, replicates CO 1-3): 967,259 and 2,115,336 and 2,977,458 | Peak Height L-Valine (HMDB00883, MCF7/TGL cells treated with CO, replicates CO 1-3): 166,887,800 and 164,029,200 and 219,042,800 | Peak Height Acetylcholine (HMDB00895, MCF7/TGL cells treated with CO, replicates CO 1-3): 79,843,420 and 75,982,720 and 87,382,500 | Peak Height NAD (HMDB00902, MCF7/TGL cells treated with CO, replicates CO 1-3): 6,156,942 and 7,187,370 and 12,756,100 | Peak Height Citrulline (HMDB00904, MCF7/TGL cells treated with CO, replicates CO 1-3): 9,044,262 and 10,234,370 and 14,264,050 | Peak Height L-Tryptophan (HMDB00929, MCF7/TGL cells treated with CO, replicates CO 1-3): 30,996,070 and 34,786,840 and 68,643,900 | Peak Height Uridine diphosphate glucuronic acid (HMDB00935, MCF7/TGL cells treated with CO, replicates CO 1-3): 726,138 and 548,546 and 770,082 | Peak Height S-Adenosylhomocysteine (HMDB00939, MCF7/TGL cells treated with CO, replicates CO 1-3): 56,652 and 145,088 and 413,677 | Peak Height Threonic acid (HMDB00943, MCF7/TGL cells treated with CO, replicates CO 1-3): 76,882,710 and 94,196,330 and 129,619,900 | Peak Height dGDP (HMDB00960, MCF7/TGL cells treated with CO, replicates CO 1-3): 686,954 and 539,654 and 784,042 | Peak Height Hypotaurine (HMDB00965, MCF7/TGL cells treated with CO, replicates CO 1-3): 4,796,295 and 5,519,371 and 5,943,089 | Peak Height Adenosine phosphosulfate (HMDB01003, MCF7/TGL cells treated with CO, replicates CO 1-3): 14,981 and 16,338 | Peak Height Deoxyribose 5-phosphate (HMDB01031, MCF7/TGL cells treated with CO, replicates CO 1-3): 19,019 and 34,976 and 30,540 | Peak Height S-Lactoylglutathione (HMDB01066, MCF7/TGL cells treated with CO, replicates CO 1-3): 397,298 and 293,636 and 484,692 | Peak Height D-Sedoheptulose 7-phosphate (HMDB01068, MCF7/TGL cells treated with CO, replicates CO 1-3): 151,546 and 165,071 and 234,010 | Peak Height D-Glyceraldehyde 3-phosphate (HMDB01112, MCF7/TGL cells treated with CO, replicates CO 1-3): 1,475,183 and 1,160,887 and 1,058,732 | Peak Height N-Acetylglutamic acid (HMDB01138, MCF7/TGL cells treated with CO, replicates CO 1-3): 567,078 and 897,146 and 1,371,040 | Peak Height 5′-Methylthioadenosine (HMDB01173, MCF7/TGL cells treated with CO, replicates CO 1-3): 269,714 and 419,042 and 1,274,477 | Peak Height S-Adenosylmethionine (HMDB01185, MCF7/TGL cells treated with CO, replicates CO 1-3): 9,310,209 and 12,590,700 and 17,427,170 | Peak Height Guanosine diphosphate (HMDB01201, MCF7/TGL cells treated with CO, replicates CO 1-3): 35,607 and 34,452 and 43,718 | Peak Height Allantoic acid (HMDB01209, MCF7/TGL cells treated with CO, replicates CO 1-3): 44,843 and 53,026 and 96,308 | Peak Height 5-Thymidylic acid (HMDB01227, MCF7/TGL cells treated with CO, replicates CO 1-3): 266,456 and 133,281 and 141,715 | Peak Height Glucosamine 6-phosphate (HMDB01254, MCF7/TGL cells treated with CO, replicates CO 1-3): 44,392 and 62,516 and 90,486 | Peak Height Guanosine triphosphate (HMDB01273, MCF7/TGL cells treated with CO, replicates CO 1-3): 84,003 and 60,453 and 112,154 | Peak Height N6,N6,N6-Trimethyl-L-lysine (HMDB01325, MCF7/TGL cells treated with CO, replicates CO 1-3): 4,594,085 and 5,317,512 and 7,697,279 | Peak Height ADP (HMDB01341, MCF7/TGL cells treated with CO, replicates CO 1-3): 902,793 and 705,422 and 1,082,377 | Peak Height Thymidine 5′-triphosphate (HMDB01342, MCF7/TGL cells treated with CO, replicates CO 1-3): 54,889 and 34,363 and 35,046 | Peak Height N-Acetyl-glucosamine 1-phosphate (HMDB01367, MCF7/TGL cells treated with CO, replicates CO 1-3): 464,872 and 467,412 and 595,300 | Peak Height Guanosine monophosphate (HMDB01397, MCF7/TGL cells treated with CO, replicates CO 1-3): 73,405 and 58,750 and 80,249 | Peak Height Glucose 6-phosphate (HMDB01401, MCF7/TGL cells treated with CO, replicates CO 1-3): 1,799,795 and 2,339,699 and 3,140,759 | Peak Height Niacinamide (HMDB01406, MCF7/TGL cells treated with CO, replicates CO 1-3): 1,738,434 and 1,604,153 and 3,615,850 | Peak Height Citicoline (HMDB01413, MCF7/TGL cells treated with CO, replicates CO 1-3): 1,054,917 and 1,269,775 and 2,126,892 | Peak Height NADH (HMDB01487, MCF7/TGL cells treated with CO, replicates CO 1-3): 81,979 and 73,214 and 61,204 | Peak Height Asymmetric dimethylarginine (HMDB01539, MCF7/TGL cells treated with CO, replicates CO 1-3): 2,485,123 and 2,893,325 and 4,095,202 | Peak Height CDP (HMDB01546, MCF7/TGL cells treated with CO, replicates CO 1-3): 49,666 and 36,830 and 44,004 | Peak Height D-Ribose 5-phosphate (HMDB01548, MCF7/TGL cells treated with CO, replicates CO 1-3): 523,976 and 578,358 and 695,562 | Peak Height CDP-Ethanolamine (HMDB01564, MCF7/TGL cells treated with CO, replicates CO 1-3): 229,328 and 262,826 and 313,255 | Peak Height Phosphorylcholine (HMDB01565, MCF7/TGL cells treated with CO, replicates CO 1-3): 826,434,500 and 950,902,100 and 1,062,045,000 | Peak Height Glucose 1-phosphate (HMDB01586, MCF7/TGL cells treated with CO, replicates CO 1-3): 194,892 and 220,042 and 348,617 | Peak Height 2-Hydroxycaproic acid (HMDB01624, MCF7/TGL cells treated with CO, replicates CO 1-3): 663,141 and 926,482 and 905,559 | Peak Height DL-O-Phosphoserine (HMDB01721, MCF7/TGL cells treated with CO, replicates CO 1-3): 256,439 and 305,155 and 440,561 | Peak Height 2-Ketohexanoic acid (HMDB01864, MCF7/TGL cells treated with CO, replicates CO 1-3): 10,109,740 and 13,290,500 and 25,544,760 | Peak Height Acetylcysteine (HMDB01890, MCF7/TGL cells treated with CO, replicates CO 1-3): 309,165 and 445,217 and 662,532 | Peak Height Methionine sulfoxide (HMDB02005, MCF7/TGL cells treated with CO, replicates CO 1-3): 1,119,307 and 1,490,306 and 2,521,401 | Peak Height Imidazolelactic acid (HMDB02320, MCF7/TGL cells treated with CO, replicates CO 1-3): 128,890 and 215,532 and 355,864 | Peak Height Methylimidazoleacetic acid (HMDB02820, MCF7/TGL cells treated with CO, replicates CO 1-3): 2,032,579 and 2,307,084 and 4,227,106 | Peak Height Erythritol (HMDB02994, MCF7/TGL cells treated with CO, replicates CO 1-3): 124,085 and 149,580 and 273,411 | Peak Height Oxidized glutathione (HMDB03337, MCF7/TGL cells treated with CO, replicates CO 1-3): 1,351,310 and 1,735,245 and 4,066,758 | Peak Height L-Dihydroorotic acid (HMDB03349, MCF7/TGL cells treated with CO, replicates CO 1-3): 52,713 and 82,695 and 121,047 | Peak Height GDP-glucose (HMDB03351, MCF7/TGL cells treated with CO, replicates CO 1-3): 30,304 and 39,328 and 68,617 | Peak Height N-Acetylornithine (HMDB03357, MCF7/TGL cells treated with CO, replicates CO 1-3): 364,451 and 403,207 and 622,448 | Peak Height 4-Acetamidobutanoic acid (HMDB03681, MCF7/TGL cells treated with CO, replicates CO 1-3): 550,530 and 718,720 and 878,912 | Peak Height N-Acetylasparagine (HMDB06028, MCF7/TGL cells treated with CO, replicates CO 1-3): 279,146 and 204,547 and 192,934 | Peak Height N-Acetylglutamine (HMDB06029, MCF7/TGL cells treated with CO, replicates CO 1-3): 233,588 and 221,551 and 457,769 | Peak Height ADP-glucose (HMDB06557, MCF7/TGL cells treated with CO, replicates CO 1-3): 51,484 and 47,964 and 81,136 | Peak Height 4-Hydroxybenzaldehyde (HMDB11718, MCF7/TGL cells treated with CO, replicates CO 1-3): 1,638,500 and 1,711,975 and 2,780,422 | Peak Height N-Acetyl-L-methionine (HMDB11745, MCF7/TGL cells treated with CO, replicates CO 1-3): 1,517,454 and 1,648,819 and 2,302,821 | Peak Height D-2,3-Dihydroxypropanoic acid (HMDB31818, MCF7/TGL cells treated with CO, replicates CO 1-3): 2,390,333 and 3,141,171 and 4,932,187 | Peak Height 3-hydroxyhexadecanoic acid (HMDB61658, MCF7/TGL cells treated with CO, replicates CO 1-3): 11,142 and 13,344 and 11,314 | citric acid and phosphoenolpyruvic acid [1]: did not provide statistically significant results | nine common metabolites (fumaric acid, L-Dihydroorotic acid, D-2-Hydroxyglutaric, malic acid, NAD, GDP-glucose, pyruvic acid, inosinic acid, oxoglutaric acid) [1]: significantly downregulated | pyruvic acid, oxoglutaric acid, malic acid, and fumaric acid (TCA intermediates) [1]: significantly downregulated | succinic acid [1]: significantly downregulated | abundance of metabolites tested (metabolomics profiling) (MCF7/TGL/pQ cells, 250 ppm carbon monoxide for 16 hours): reduced the abundance of the majority of metabolites tested
